Results reported in patent publication US20100075907A1, “NEUROMEDIN U RECEPTOR AGONISTS AND USES THEREOF” (priority 2006, published 2010).
Residues, ends and D or L forms follow the SMILES beside them. No end group written: not given here. *: point of attachment. X1 = CC(C)CCC[C@@H](C)[C@H]1CC[C@H]2[C@@H]3CC=C4C[C@@H](OC(=O)C*)CC[C@]4(C)[C@H]3CC[C@]12C; Succinimide(1-Et,3-yl) = CCN1C(=O)CC(*)C1=O; Palmitoyl = CCCCCCCCCCCCCCCC(=O)*

Biological target: rat NMUR2 (Rattus norvegicus, UniProt Q9ESQ4)
Sequence (Q9ESQ4 whole entry): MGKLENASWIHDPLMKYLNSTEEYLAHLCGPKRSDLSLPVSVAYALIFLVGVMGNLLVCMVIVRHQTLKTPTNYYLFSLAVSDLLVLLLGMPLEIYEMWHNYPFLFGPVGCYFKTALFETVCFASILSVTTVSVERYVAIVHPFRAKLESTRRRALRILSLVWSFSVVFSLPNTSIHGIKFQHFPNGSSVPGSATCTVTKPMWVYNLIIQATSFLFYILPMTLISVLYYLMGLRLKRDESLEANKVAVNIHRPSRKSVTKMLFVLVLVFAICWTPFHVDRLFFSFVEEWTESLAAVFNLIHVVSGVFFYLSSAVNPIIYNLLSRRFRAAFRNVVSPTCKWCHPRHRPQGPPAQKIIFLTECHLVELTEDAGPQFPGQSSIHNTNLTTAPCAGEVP
Assay: FLIPR calcium mobilization assay, rat NMUR2
Format: cell-based
Set-up: expressed in transfected cells; host or cells: FLP-In CHO or HEK-293 FLP-In cells (pcDNA5)
Details: rat NMUR2; for % Activity: maximum response at 1 μM compared to hNMU-25; for EC50: FLIPR
From the text: Human, mouse or rat cDNAs encoding NMUR1 or NMUR2 (as described in Howard et al. Nature 406: 70-74 (2000) were subcloned in pcDNA5 (Invitrogen) and transfected into FLP-In CHO cells and HEK-293 FLP-In cells purchased from Invitrogen (Carlsbad, Calif.) using lipofectamine (Invitrogen). The Flp-In system allows integration and expression of a particular gene of interest at a specific genomic location utilizing the Flp recombinase from yeast. The transfected cells were selected by growth in medium containing 200 μg/mL hygromycin (Invitrogen). Populations were frozen at early passage numbers, and these stocks were used for further studies. Stable clones that expressed the mRNAs were identified functionally by FLIPR as well as by RT-PCR. […] Two different rodent NMUR1 cell lines were thus generated: one with the codon as predicted from the genomic databases and another cell line with an engineered methionine (ATG) as the start codon. Additionally, stable cell lines expressing the human receptors were generated in HEK-293/aeq17 cells which stably express the aequorin gene under the CMV promoter. The human NMUR2 cDNA was cloned into pcDNA3.1 and human NMUR1 was subcloned into pIRES-puro (Clontech, Mountain View, Calif.), after transfection cells were selected in media containing G418 and either hygromycin (NMUR2) or puromycin (NMUR1).
The NMU receptors signal primarily through Gαq/11 proteins; therefore calcium mobilization assays can be utilized for functional activity.
Stable cell lines expressing human and or rodent NMUR1 or human NMUR2 receptors were plated at a density of 12,000 cells per well overnight on poly-lysine coated 384-well black-walled plates. The following day, the media was removed from the plates and the cells were subsequently loaded with Fluo-3 (Molecular Probes), a calcium sensitive dye, diluted in FLIPR buffer (1× Hank's buffered saline containing 20 mM HEPES, 0.1% BSA, 2.5 mM probenecid (Sigma) and 1.6 mM TR40). All reagents are from Invitrogen unless otherwise noted. Peptide stocks were resuspended in DMSO at a stock concentration of 2 mM and diluted in FLIPR buffer on the day of the experiment to a 4 μM working stock solution.
After a 90 minute incubation at room-temperature, cell plates were loaded onto a FLIPR (Molecular Devices) to monitor cellular fluorescence (excitation=488 nm; emission=540 nm) before and after compound/peptide addition. Eight to twelve point dose responses were tested on NMUR-expressing cell lines using FLIPR with 1 μM peptide as the highest dose. The response after peptide addition was taken as the maximum fluorescence units minus the fluorescence immediately prior to stimulation for each well. EC50 values were calculated using GraphPad Prism (San Diego, Calif.) software.
In vitro responses of Neuromedin U receptor agonists (NMU1 to NMU25) in the FLIPR assay for human (Table 3), mouse (Table 4) and rat (Table 5) NMUR1 and NMUR2. EC50s are reported in nM values. Percent activity refers to the maximum response at 1 μM compared to the hNMU-25 response at the same concentration. NT=not tested.

| % Activity | EC50 | Compound |
| --- | --- | --- |
| 90.2% | 47.4 nM | Ac-C4-C4-FRVDEEFQSPFASQSRGYFLFRPRN-CONH2 ({Ac-C(PEG 20 kDa)-C(PEG 20 kDa)}-FRVDEEFQSPFASQSRGYFLFRPRN-NH2) [NMU23, C4 = Cys(PEG)20 kDa] |
| 96.4% | 37.8 nM | Pam-C2FRVDEEFQSPFASQSRGYFLFRPRN-CONH2 ({Palmitoyl-C(PEG 40 kDa)}-FRVDEEFQSPFASQSRGYFLFRPRN-NH2) [NMU25, Pam = palmitoyl; C2 = Cys(PEG)240 kDa] |
| 99.2% | 7 nM | Ac-C4FRVDEEFQSPFASQSRGYFLFRPRN-CONH2 ({Ac-C(PEG 20 kDa)}-FRVDEEFQSPFASQSRGYFLFRPRN-NH2) [NMU21, C4 = Cys(PEG)20 kDa] |
| 98.8% | – | CCN1C(=O)CC(SC[C@H](NC(C)=O)C(=O)N[C@@H](CSC2CC(=O)N(CC)C2=O)C(=O)N[C@@H](Cc2ccccc2)C(=O)N[C@@H](CCCNC(=N)N)C(=O)N[C@H](C(=O)N[C@@H](CC(=O)O)C(=O)N[C@@H](CCC(=O)O)C(=O)N[C@@H](CCC(=O)O)C(=O)N[C@@H](Cc2ccccc2)C(=O)N[C@@H](CCC(N)=O)C(=O)N[C@@H](CO)C(=O)N2CCC[C@H]2C(=O)N[C@@H](Cc2ccccc2)C(=O)N[C@@H](C)C(=O)N[C@@H](CO)C(=O)N[C@@H](CCC(N)=O)C(=O)N[C@@H](CO)C(=O)N[C@@H](CCCNC(=N)N)C(=O)NCC(=O)N[C@@H](Cc2ccc(O)cc2)C(=O)N[C@@H](Cc2ccccc2)C(=O)N[C@@H](CC(C)C)C(=O)N[C@@H](Cc2ccccc2)C(=O)N[C@@H](CCCNC(=N)N)C(=O)N2CCC[C@H]2C(=O)N[C@@H](CCCNC(=N)N)C(=O)N[C@@H](CC(N)=O)C(N)=O)C(C)C)C1=O (some centres unmarked) [NMU22] (Ac-C(Succinimide(1-Et,3-yl))C(Succinimide(1-Et,3-yl))FRVDEEFQSPFASQSRGYFLFRPRN-NH2) |

Second part, the compound before the results:

| Compound | % Activity | EC50 |
| --- | --- | --- |
| CCN1C(=O)CC(SC[C@H](NC(C)=O)C(=O)N[C@@H](Cc2ccccc2)C(=O)N[C@@H](CCCNC(=N)N)C(=O)N[C@H](C(=O)N[C@@H](CC(=O)O)C(=O)N[C@@H](CCC(=O)O)C(=O)N[C@@H](CCC(=O)O)C(=O)N[C@@H](Cc2ccccc2)C(=O)N[C@@H](CCC(N)=O)C(=O)N[C@@H](CO)C(=O)N2CCC[C@H]2C(=O)N[C@@H](Cc2ccccc2)C(=O)N[C@@H](C)C(=O)N[C@@H](CO)C(=O)N[C@@H](CCC(N)=O)C(=O)N[C@@H](CO)C(=O)N[C@@H](CCCNC(=N)N)C(=O)NCC(=O)N[C@@H](Cc2ccc(O)cc2)C(=O)N[C@@H](Cc2ccccc2)C(=O)N[C@@H](CC(C)C)C(=O)N[C@@H](Cc2ccccc2)C(=O)N[C@@H](CCCNC(=N)N)C(=O)N2CCC[C@H]2C(=O)N[C@@H](CCCNC(=N)N)C(=O)N[C@@H](CC(N)=O)C(N)=O)C(C)C)C1=O (some centres unmarked) [NMU8] (Ac-C(Succinimide(1-Et,3-yl))FRVDEEFQSPFASQSRGYFLFRPRN-NH2) | 94.7% | – |
| H-FRVDEEFQSPFASQSRPYFLFRPRN-NH2 [NMU4] | 100% | – |
| Ac-FRVDEEFQSPFASQSRPYFLFRPRN-NH2 [NMU5] | 100% | – |
| Ac-FRVDEEFQSPFASQSRGYFLFRPRN-NH2 [NMU2] | 100% | 2.2 nM |
| CC(=O)N[C@@H](CSCC(=O)O[C@H]1CC[C@@]2(C)C(=CC[C@H]3[C@@H]4CC[C@H]([C@H](C)CCCC(C)C)[C@@]4(C)CC[C@@H]32)C1)C(=O)NCC(=O)N[C@@H](Cc1ccc(O)cc1)C(=O)N[C@@H](Cc1ccccc1)C(=O)N[C@@H](CC(C)C)C(=O)N[C@@H](Cc1ccccc1)C(=O)N[C@@H](CCCNC(=N)N)C(=O)N1CCC[C@H]1C(=O)N[C@@H](CCCNC(=N)N)C(=O)N[C@@H](CC(N)=O)C(N)=O [NMU11] (Ac-C(X1)GYFLFRPRN-NH2) | 33.2% | – |
| GYFLFRPRN-NH2 [NMU3] | 100% | – |
